Reference: patent US6858739B2, “Indole and benzimidazole 15-lipoxygenase inhibitors” (Warner-Lambert Company, priority 2000, dated 2005)

Assays:
human 15-LO = biological target: T1, human 15-LO (Homo sapiens, UniProt P16050); experiment: 15-LO inhibition, human enzyme; type: biochemical; settings: linoleic acid as substrate
T1 sequence (P16050 1-662): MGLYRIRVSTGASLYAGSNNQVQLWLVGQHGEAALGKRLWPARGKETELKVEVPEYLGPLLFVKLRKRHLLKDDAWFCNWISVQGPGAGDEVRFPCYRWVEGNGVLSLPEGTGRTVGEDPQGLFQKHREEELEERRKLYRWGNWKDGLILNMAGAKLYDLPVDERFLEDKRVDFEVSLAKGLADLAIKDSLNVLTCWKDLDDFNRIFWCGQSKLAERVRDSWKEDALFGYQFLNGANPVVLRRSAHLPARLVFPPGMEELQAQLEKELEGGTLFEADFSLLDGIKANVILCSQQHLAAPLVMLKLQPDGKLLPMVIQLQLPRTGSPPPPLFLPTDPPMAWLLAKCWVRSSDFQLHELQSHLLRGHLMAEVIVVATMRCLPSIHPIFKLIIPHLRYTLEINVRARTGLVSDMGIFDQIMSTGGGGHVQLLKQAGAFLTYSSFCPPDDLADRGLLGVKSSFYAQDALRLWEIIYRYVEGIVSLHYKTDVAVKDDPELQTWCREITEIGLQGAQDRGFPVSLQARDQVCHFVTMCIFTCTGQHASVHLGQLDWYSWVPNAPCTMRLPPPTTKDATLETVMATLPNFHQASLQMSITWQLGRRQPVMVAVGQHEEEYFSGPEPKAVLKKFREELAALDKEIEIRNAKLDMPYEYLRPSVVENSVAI
Protocol: (§1) The compounds described above are effective inhibitors of 15-LO when evaluated in standard assays routinely utilized to measure 15-LO activity. Specifically, representative compounds were evaluated by the methods described by Auerbach et al., Analytical Biochemistry, 1992;201:375-380. Two in vitro assays were utilized, one utilizing rabbit reticulocyte 15-LO, the other using human 15-LO. Both used linoleic acid as substrate, to enzymatically produce a peroxide oxidation product known as 13(S)-HPODE. N-Benzoyl leucomethylene blue was utilized as a colorimetric reagent for detection and quantification of the peroxide formation. Also, HPLC was utilized to quantify the oxidation following incubation at 4° C. for 10 minutes.
(§2) Data Column 1 gives the concentration of compound required to inhibit 50% of the activity of 15-LO (IC50) when measured by the HPLC method of Auerbach et al. using rabbit enzymes, and data Column 2 gives data from human 15-LO enzyme.

[1] = biological target: T2, rabbit reticulocyte 15-LO (Oryctolagus cuniculus, UniProt P12530); experiment: 15-LO inhibition, rabbit reticulocyte enzyme (HPLC method of Auerbach et al.); type: biochemical; settings: linoleic acid as substrate, incubation at 4° C. for 10 minutes
T2 construct: one utilizing rabbit reticulocyte 15-LO; from tissue; host or cells: rabbit reticulocytes
T2 sequence (P12530 1-663): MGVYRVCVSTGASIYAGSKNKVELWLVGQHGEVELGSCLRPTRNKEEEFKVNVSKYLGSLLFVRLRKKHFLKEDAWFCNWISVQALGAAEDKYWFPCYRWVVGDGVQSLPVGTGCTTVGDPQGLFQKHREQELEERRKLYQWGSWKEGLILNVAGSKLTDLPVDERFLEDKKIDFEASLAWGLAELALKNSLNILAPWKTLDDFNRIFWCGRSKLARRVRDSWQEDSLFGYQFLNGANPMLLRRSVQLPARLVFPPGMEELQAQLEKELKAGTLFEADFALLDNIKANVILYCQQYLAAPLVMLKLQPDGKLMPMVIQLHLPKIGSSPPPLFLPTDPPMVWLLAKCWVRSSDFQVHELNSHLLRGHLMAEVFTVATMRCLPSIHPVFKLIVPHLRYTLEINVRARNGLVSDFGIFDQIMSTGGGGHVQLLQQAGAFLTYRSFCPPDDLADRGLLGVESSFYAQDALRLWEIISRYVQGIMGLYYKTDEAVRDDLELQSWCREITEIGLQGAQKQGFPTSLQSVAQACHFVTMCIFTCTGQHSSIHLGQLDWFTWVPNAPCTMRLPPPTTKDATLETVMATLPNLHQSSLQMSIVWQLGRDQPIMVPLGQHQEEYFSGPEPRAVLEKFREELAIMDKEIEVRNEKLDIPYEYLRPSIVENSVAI
Protocol: as §1, §2

SMILES	IC50 (human 15-LO) [nM]	IC50 [1] [nM]	melting point [°C]
COc1ccc(-c2cc3cc(F)c(F)cc3[nH]2)cc1NC(=S)Nc1ccc(C(=O)O)cc1 [Example 5, 4-{3-[5-(5,6-Difluoro-1H-indol-2-yl)-2-methoxy-phenyl]-thioureido}-benzoic acid]	13	11	201 to 203
CCOP(=O)(Cc1ccc(NC(=S)Nc2cc(-c3cc4cc(F)c(F)cc4[nH]3)ccc2OC)cc1)OCC [Example 24, (4-{3-[5-(5,6-Difluoro-1H-indol-2-yl)-2-methoxy-phenyl]-thioureido}-benzyl)-phosphonic acid diethyl ester]	91	18	180 to 182
COc1ccc(-c2cc3cc(F)c(F)cc3[nH]2)cc1NC(=S)Nc1cc(Cl)cc(Cl)c1 [Example 4, 1-(3,5-Dichloro-phenyl)-3-[5-(5,6-difluoro-1H-indol-2-yl)-2-methoxy-phenyl]-thiourea]	60	30	203 to 205
COc1ccc(-c2cc3cc(F)c(F)cc3[nH]2)cc1NCc1cccc(O)c1 [Example 11, 3-{[5-(5,6-Difluoro-1H-indol-2-yl)-2-methoxy-phenylamine]-methyl}-phenol]	106	24	–
COc1ccc(-c2cc3cc(F)c(F)cc3[nH]2)cc1NCc1cccs1 [Example 12, [5-(5,6-Difluoro-1H-indol-2-yl)-2-methoxy-phenyl]-thiophen-2-ylmethyl-amine]	461	45	190 to 192
COc1ccc(-c2cc3cc(F)c(F)cc3[nH]2)cc1NS(=O)(=O)c1cc(Cl)cc(Cl)c1 [Example 8, 3,5-Dichloro-N-[5-(5,6-difluoro-1H-indol-2-yl)-2-methoxy-phenyl]-benzenesulfonamide]	73	19	217 to 219
COc1ccc(-c2cc3ccccc3[nH]2)cc1NC(=S)Nc1cc(Cl)cc(Cl)c1 [Example 2, 1-(3,5-Dichloro-phenyl)-3-[5-(1H-indol-2-yl)-2-methoxy-phenyl]-thiourea]	29	11	199 to 201

Other lines, results leading:

IC50 (human 15-LO) [nM]	IC50 [1] [nM]	melting point [°C]	SMILES
359	37	235 to 237	COc1ccc(-c2cc3cc(Cl)c(Cl)cc3[nH]2)cc1N [Example 18, 5-(5,6-Dichloro-1H-indol-2-yl)-2-methoxy-phenylamine]
25	19	110 to 113	COc1ccc(-c2cc3cc(F)c(F)cc3[nH]2)cc1NC(=S)NCCNC(=O)OC(C)(C)C [Example 38, (2-{3-[5-(5,6-Difluoro-1H-indol-2-yl)-2-methoxy-phenyl]-thioureido}-ethyl)-carbamic acid tert-butyl ester]
33	45	191 to 193	COc1ccc(-c2cc3cc(F)c(F)cc3[nH]2)cc1NC(=S)NCCO [Example 37, 1-[5-(5,6-Difluoro-1H-indol-2-yl)-2-methoxy-phenyl]-3-(2-hydroxy-ethyl)-thiourea]
254	13	216 to 218	COc1ccc(-c2cc3cc(Cl)c(Cl)cc3[nH]2)cc1NC(=S)Nc1cccc(C(=O)O)c1 [Example 19, 3-{3-[5-(5,6-Dichloro-1H-indol-2-yl)-2-methoxy-phenyl]-thioureido}-benzoic acid]
22	16	–	COc1ccc(-c2cc3cc(F)c(F)cc3[nH]2)cc1Nc1cccc(OCc2ccccc2)c1 [Example 53, [5-(5,6-Difluoro-1H-indol-2-yl)-2-methoxy-phenyl]-(3-benzyloxy-phenyl)-amine]
802	–	239 to 242	COc1ccc(-c2cc3cc(F)c(F)cc3[nH]2)cc1NS(=O)(=O)c1cccc(C#N)c1 [Example 28, 3Cyano-N-[5-(5,6-difluoro-1H-indol-2-yl)-2-methoxy-phenyl]-benzenesulfonamide]
